Two compounds from patent US20150094321A1, “COMBINATION” (GlaxoSmithKline LLC, priority 2009, published 2015) can be followed below.

What all share (test): Cell line proliferation study
Common to all, as to assay type: cell-based, human

One assay deals with KM12. The following applies: KM12, colon; for pIC50: Homo sapiens, 72 hours, read-out: gIC50. The protocol:
(§1) In a separate study, combination drug tests with Compounds A and B were conducted using a panel of cell lines from human colon cancers (n=26), lung cancers (n=15) and pancreatic cancers (n=6). Cell lines were obtained from commercial vendors (ATCC and DSMZ). Cell lines were grown in RPMI-1640 supplemented with 2 mM glutamine, 1 mM sodium pyruvate and 10% fetal bovine serum (except for Capan-1 and HuP-T4 which were grown with 20% fetal bovine serum) and maintained at 37° C. and 5% CO2 in a humid incubator. Assays were performed in 384 well microtiter plates with optimum seeding densities for each cell line.
(§2) The test compounds were prepared as 10 mM stocks in 100% DMSO. Further dilutions of the compounds were made in DMSO. Compound A was diluted horizontally in a separate 96 well microtiter plate in rows D-G using a 3-fold dilution series for 10 dilution points. Compound B was similarly diluted horizontally in a 96 well microtiter plate in rows B-E using a 3-fold dilution series for 10 dilution points.
(§3) The two compounds were combined using equal volumes from each drug plate into cell culture media. […] Both Compound A and Compound B were individually titrated in rows B and C (for Compound B) and rows F and G (for Compound A) of the merged drug plate.
(§4) A 1:10 dilution of the drugs was performed in cell culture media prior to addition to the cells.
(§5) The final concentration range for the test compounds was 250 to 0.013 nM for Compound A and 1000 to […] for Compound B. The positive control consisted of culture media with DMSO at 0.1% and cells. The negative control consisted of culture media with DMSO at 0.1%. The cell lines were incubated at 37° C., 5% CO2 in humid air for 72 hours. Cell proliferation was measured using the CellTiter Glo (Promega) reagent according to the manufacturer's protocol. The plates are treated with CellTiter Glo solution and are analyzed for RLU (relative light units) using a Molecular Devices SpectraMax M5 plate reader.
(§6) The percent intensity values were used in model 205 of XLfit (IDBS, Inc.) in Microsoft Excel to calculate gIC50 values using a 4 parameter logistical fit. The midpoint of the growth window (the gIC50) falls half way between the number of cells at the time of compound addition (T=0) and the growth of control cells treated with DMSO at 72 hrs. The number of cells at time zero (T0) is divided from the intensity value at the bottom of the response curve (Ymin) to generate a measure for cell death (Ymin/T0). A value below 1 for Ymin/T0 indicates stronger potency to induce cell death with the treatment when compared to higher values.
(§7) 1. Excess over Highest Single Agent (EOHSA)—This was calculated as described above (Borisy et al, 2003; FDA 21 CFR 300.50) 2. Bliss synergy—A second criterion often used to determine combination synergy is evaluating the excess inhibition over Bliss independence or “additivity” (Bliss and Mexico, 1939). The model assumes a combined response of the two compounds independently using the following:
(§8) Where Ea is the effect (or percent inhibition) of Compound A and Eb is the effect of Compound B. The resulting effect of the combination of the two compounds is compared to their predicted additivity by Bliss and a synergy score is generated for each dose along the response curve. 3. Combination Index (CI)—A third criterion traditionally used for the evaluation of synergy is Combination Index (CI) derived from the Chou and Talalay (1984). The following equation is a model used for compounds that behave with different mechanisms of action (mutually non-exclusive formula). This was calculated as described above.
(§9) For EOHSA and Bliss Synergy measures, a score is generated for each dose along the response curve. These scores reflect the percentage over the highest agent (EOHSA) or percentage greater than Bliss additivity, depending on which metric is being interpreted. […]

For another assay, the system named is SW1990. The following applies: SW1990, pancreas; for pIC50: Homo sapiens, 72 hours, read-out: gIC50. As to the method:
as §1, §2, §3, §4, §5, §6, §7, §8, §9

For a further assay, the system named is NCIH1792. The conditions noted are these: NCIH1792, lung; for pIC50: Homo sapiens, NCI-H1792, 72 hours, read-out: gIC50. The protocol:
as §1, §2, §3, §4, §5, §6, §7, §8, §9

Another assay relates to HPAFII. The conditions noted are these: pancreas; for pIC50: Homo sapiens, HPAF-II, 72 hours, read-out: gIC50. As to the method: as §1, §2, §3, §4, §5, §6, §7, §8, §9
A further assay has as its system HCT8. The following applies: HCT8, colon; for pIC50: Homo sapiens, HCT-8, 72 hours, read-out: gIC50. The protocol:
as §1, §2, §3, §4, §5, §6, §7, §8, §9

The test system of another assay is SW403. The following applies: SW403, colon; for pIC50: Homo sapiens, SW-403, 72 hours, read-out: gIC50. As to the method: as §1, §2, §3, §4, §5, §6, §7, §8, §9
The test system of a further assay is NCIH2122. The conditions noted are these: NCIH2122, lung; for pIC50: Homo sapiens, NCI-H2122, 72 hours, read-out: gIC50. As to the method:
as §1, §2, §3, §4, §5, §6, §7, §8, §9

The test system of another assay is SW480. The following applies: SW480, colon; for pIC50: Homo sapiens, 72 hours, read-out: gIC50. As to the method:
as §1, §2, §3, §4, §5, §6, §7, §8, §9

pIC50: −log10 of the molar value.

Regarding `CC(=O)Nc1cccc(-n2c(=O)n(C3CC3)c(=O)c3c(Nc4ccc(I)cc4F)n(C)c(=O)c(C)c32)c1` [Compound A, N-{3-[3-cyclopropyl-5-(2-fluoro-4-iodo-phenylamino)-6,8-dimethyl-2,4,7-trioxo-3,4,6,7-tetrahydro-2H-pyrido[4,3-d]pyrimidin-1-yl]phenyl}acetamide], the pIC50 with KM12 is 7.54; in the assay on SW1990, 7.03; in the assay on NCIH1792, 7.38; in the assay on HPAFII, 7.80; with HCT8, 7.74; in the assay on SW403, 8.34. In addition, the pIC50 in the assay on NCIH2122 is 7.52; in the assay on SW480, 6.49. Besides, the Ymin/T0 with KM12 is given as 19.1; with SW1990 it was 17.1; with NCIH1792, 2.8; in the assay on HPAFII it was −0.8; with HCT8, 16.70; in the assay on SW403, 3.02. In addition, the values for the Ymin/T0 in the assay with NCIH2122 and in the assay on SW480 were −11.8 and 29.37, respectively.

As for `Cn1ncc(Cl)c1-c1cc(C(=O)N[C@H](CN)Cc2ccc(F)c(F)c2)oc1Cl` [Compound B, N-{(1S)-2-amino-1-[(3,4-difluorophenyl)methyl]ethyl}-5-chloro-4-(4-chloro-1-methyl-1H-pyrazol-5-yl)-2-furancarboxamide], the pIC50 in the assay on KM12 is 6.03; with SW1990, below 6.00; with NCIH1792, below 6.00; with HPAFII it was below 6.00; in the assay with HCT8, 6.12; in the assay with SW403, 7.13. Besides, the pIC50 in the assay on NCIH2122 and with SW480 was below 6.00 throughout. The Ymin/T0 with KM12 was 13.9; in the assay with SW1990, 36.8; in the assay on NCIH1792, 26.0; in the assay on HPAFII, 31.2; in the assay on HCT8, 20.44; with SW403, 8.82. In addition, the Ymin/T0 with NCIH2122 turned out to be 11.4; in the assay with SW480 it was 11.87.
